The source of these data is patent US20060276502A1, “Pharmaceutical use of 1-azabicyclo[2.2.2]octanes and a method of testing compounds for the ability of activating inactive wt p53” (priority 2003, published 2006).

The subject of experiment [1] is M21 human melanoma cells. The experiment in a line: Apoptosis by FITC-Annexin-V staining / FACS of M21 melanoma cells. The class given is cell-based. On the procedure:
With reference to FIG. 1A, the maternal human melanoma cells M21, expressing integrin αvβ3, and a subpopulation, M21L, lacking integrin αvβ3 were cultured in a three-dimensional collagen gel (3D-collagen). At indicated times, apoptosis was detected by FITC-Annexin-V staining.
Apoptosis was analyzed in M21 cells grown under 2D culture conditions or within 3D-collagen with or without PRIMA-1 treatment for 16, 24, 36 and 48 h. […] This also verifies the results using dn p53 and p53-siRNA (FIG. 3) in an independent manner.

The subject of experiment [2] is caspase-8. The experiment in a line: Western blot for cleavage of caspase-8, control Jurkat cells. In kind it is cell-based. Conditions: cycloheximide-treated Jurkate cells. Background: Immunoblotting shows a protein as a band on a membrane.
Experiment [3] deals with C8161 melanoma cells (truncated, unfunctional p53). The experiment can be described thus: C8161 melanoma tumour growth s.c. in C57/BL nude mice. The class given is in vivo. As to conditions: 100 mg/kg for 6 d starting 6 d after inoculation. On the procedure:
(§1) Tumour volumes were monitored for melanoma growth, as described in the preceding paragraph. Tumour volume over time was determined by the formula: width^2×length×0,52. […] In the Figure, ♦ represents M21; □ M21L; ▴ Lp53His175-0; and ★ Lp53His175-8. M21Lp53His175-0 and M21Lp53His175-8 formed large tumours similar in size to M21 tumours. However, M21L cells lacking integrin αvβ3 typically grew only minimal or developed no tumours.
(§2) To test if restoration of an active wt p53 conformation by PRIMA-1 could also induce melanoma cell apoptosis in vivo and thereby block melanoma tumour growth, M21 and C8161 melanoma cells (1,5×10^6) were injected s.c. into the back of 6-week-old C57/BL nude mice. The mice were treated with or without PRIMA-1 (100 mg/kg) for 6 d starting 6 d after tumour innoculation.

The target of experiment [4] is T1, wt p53 (Homo sapiens, UniProt P04637).
T1 construct: endogenous in cells; host or cells: M21, M21L and AA human melanoma cells
The experiment can be described thus: p53 conformation by ELISA with Pab 1620, Pab 240 and DO 1 in melanoma cells in 3D-collagen. In kind it is cell-based. On the procedure: Data shown in FIG. 2D represents Pab 1620 and Pab 240 reactivity as percentage of D01 reactivity (total p53).
PRIMA-1 is a substance known from WO0224692 to be able to reactivate the apoptosis-inducing function of mutant p53 proteins. […] The p53 conformation was examined as described above. […] To this end, p53 conformation was also analyzed in AA human melanoma cells expressing αv β3 integrin and wt p53 before and after incubation within 3D collagen (FIG. 4B).

Experiment [5] concerns M21 melanoma cells (wt p53). The experiment can be described thus: M21 melanoma tumour growth s.c. in C57/BL nude mice. Conditions: 100 mg/kg for 6 d starting 6 d after inoculation, versus PBS control. In kind it is in vivo. On the procedure: as §1, §2
For experiment [6], the system named is Caspase 9. The experiment can be described thus: Western blot of Caspase 9 activation in M21 tumours grown in nude mice. In kind it is in vivo. Conditions: 24 h and 36 h after single injection. An excerpt: Caspase 9 is therefore a potential downstream effector of PRIMA-1- and p53-induced apoptosis in melanoma cells in vivo.
Experiment [7] has as its system p53. The experiment can be described thus: Western blot of p53 acetylation and p53 target proteins in M21 tumours grown in nude mice after a single PRIMA-1 injection. In kind it is in vivo. As to conditions: 24 h and 36 h after single injection. An excerpt:
Thus, acetylation of p53-Lys382 is potentially involved in p53 activation by PRIMA-1, while Apaf-1 and PUMA are potential downstream mediators of PRIMA-1- and p53-induced melanoma cell apoptosis in vivo.

In the case of Z-LEHD-FMK x TFA [reference compound], the “effect on PRIMA-1 induced apoptosis” value in experiment [1] (36 h in 3D-collagen, with 80 μM PRIMA-1) was “blocked”.
`C[C@@H]1C[C@@H]([C@H](O)CC2CC(=O)NC(=O)C2)C(=O)[C@@H](C)C1` [cycloheximide]: the caspase-8 cleavage result in experiment [2] was “displayed caspase-8 cleavage”.
On to `O=C1C2CCN(CC2)C1(CO)CO` [PRIMA-1, 2,2-bis(hydroxymethyl)-1-azabicyclo[2.2.2]octan-3-one], for which the “melanoma growth (mean tumour volume)” value was “no effect” in experiment [3] and “significantly inhibited” in experiment [5]. Further, the “p53 conformation (Pab 1620 / Pab 240 reactivity)” value in experiment [4] (AA human melanoma cells (αvβ3, wt p53), 100 μM PRIMA-1, 5 d in 3D collagen) is “enforced p53 into an active conformation”; in experiment [4] (M21 cells (αvβ3+), 100 μM PRIMA-1, 3D-collagen, 7 d), “restore active p53 conformation from an unfolded inactive state”. In addition, in experiment [6], the “activation of Caspase 9” value is given as “activation of Caspase 9”. The Apaf-1 protein level entry in experiment [7] was “induces”. For the same compound, the PUMA protein level result in experiment [7] is given as “induces”. Moreover, the “acetylation of p53-Lys382” value in experiment [7] was “induces”. The “apoptosis (Annexin V staining)” value in experiment [1] (100 μM PRIMA-1, 16, 24, 36 and 48 h, 3D collagen versus 2D culture) is recorded as “promoted apoptosis in M21 cells (αvβ3+) within 3D collagen to a much higher degree than in 2D culture”. For the same compound, the “apoptosis (Annexin-V staining)” value in experiment [1] (36 h in 3D collagen, 80 μM PRIMA-1) is on record as “induces melanoma cell apoptosis”.
